According to ChEMBL document CHEMBL2046276, “Molecular cloning, characterization, and inhibition studies of a β-carbonic anhydrase from Malassezia globosa, a potential antidandruff target” (J Med Chem, 2012):
In brackets after ≈: the same amount, converted by molar mass. Activity calls are given as the source filed them. The calls are words filed in the database; no cut-off is given here.

Legend:
Malassezia furfur = test: microbe, parasite or virus in culture; details: CBS 9569, 168 h
Malassezia dermatis = test: microbe, parasite or virus in culture; details: CBS 9145, 168 h
Malassezia pachydermatis [1] = test: microbe, parasite or virus in culture; details: CBS 6536, 168 h
[2] = microbe, parasite or virus in culture; details: Malassezia globosa, CBS 7966, 168 h
Malassezia pachydermatis [3] = test: Antimicrobial activity against Malassezia pachydermatis infected in CD-1 mouse model of dandruff assessed as improvement in skin appearance at 5% cream administered once daily for 6 days measured daily for 20 days; assay type: functional
Malassezia pachydermatis [4] = test: Antimicrobial activity against Malassezia pachydermatis infected in CD-1 mouse model of dandruff assessed as fungal hyphae fragmentation at 5% cream administered once daily for 6 days measured daily for 20 days; assay type: functional
Malassezia pachydermatis [5] = test: Antimicrobial activity against Malassezia pachydermatis infected in CD-1 mouse model of dandruff assessed as improvement in skin appearance at 2% cream administered once daily for 6 days measured daily for 20 days; assay type: functional
Malassezia pachydermatis [6] = test: Antimicrobial activity against Malassezia pachydermatis infected in CD-1 mouse model of dandruff assessed as fungal hyphae fragmentation at 2% cream administered once daily for 6 days measured daily for 20 days; assay type: functional
Carbonic anhydrase = target: T1, Carbonic anhydrase (Candida albicans (strain SC5314 / ATCC MYA-2876) (Yeast), UniProt Q5AJ71)
T1 sequence (Q5AJ71 whole entry): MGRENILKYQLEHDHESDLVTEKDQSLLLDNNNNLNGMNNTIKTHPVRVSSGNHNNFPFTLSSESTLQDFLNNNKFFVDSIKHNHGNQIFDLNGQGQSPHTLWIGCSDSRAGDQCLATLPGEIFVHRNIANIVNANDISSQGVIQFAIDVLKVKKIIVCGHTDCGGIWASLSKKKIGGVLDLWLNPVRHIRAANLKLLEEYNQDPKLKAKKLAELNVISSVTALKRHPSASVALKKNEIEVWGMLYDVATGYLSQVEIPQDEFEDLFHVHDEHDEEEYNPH

Compound | MIC (Malassezia furfur) | MIC (Malassezia dermatis) | MIC (Malassezia pachydermatis [1]) | MIC [2] | Activity (Malassezia pachydermatis [3]) | Activity (Malassezia pachydermatis [4]) | Activity (Malassezia pachydermatis [5]) | Activity (Malassezia pachydermatis [6]) | Ki (Carbonic anhydrase)
Nc1cc(C(F)(F)F)c(S(N)(=O)=O)cc1S(N)(=O)=O [2,4-DISULFAMYLTRIFLUOROMETHYLANILINE] | > 640 µg/mL | > 640 µg/mL | > 640 µg/mL | 320 µg/mL (≈ 1000 µM) |  |  |  |  | 
NCCc1ccc(S(N)(=O)=O)cc1 | 640 µg/mL (≈ 3200 µM) | 640 µg/mL (≈ 3200 µM) | 640 µg/mL (≈ 3200 µM) | 320 µg/mL (≈ 1600 µM) | 67% | Active |  |  | 
Nc1ccccc1S(N)(=O)=O | 640 µg/mL (≈ 3720 µM) | 640 µg/mL (≈ 3720 µM) | > 640 µg/mL | 640 µg/mL (≈ 3720 µM) |  |  |  |  | 
CC(=O)N1CCN(c2ccc(OCC3COC(Cn4ccnc4)(c4ccc(Cl)cc4Cl)O3)cc2)CC1 (configuration not stated) |  |  |  |  |  |  | Active | Active | 
NCc1ccc(S(N)(=O)=O)cc1 [MAFENIDE] | 320 µg/mL (≈ 1720 µM) | 160 µg/mL (≈ 859 µM) | 160 µg/mL (≈ 859 µM) | 160 µg/mL (≈ 859 µM) |  |  |  |  | 
NS(=O)(=O)c1cc(Cl)c(Cl)c(S(N)(=O)=O)c1 [DICHLORPHENAMIDE] | > 640 µg/mL | > 640 µg/mL | > 640 µg/mL | 320 µg/mL (≈ 1050 µM) |  |  |  |  | 
Cc1ccc(S(N)(=O)=O)cc1 [P-TOLUENESULFONAMIDE] | 640 µg/mL (≈ 3740 µM) |  |  | 160 µg/mL (≈ 934 µM) |  |  |  |  | 
NS(=O)(=O)Nc1ccc(Br)cc1 |  |  |  |  |  |  |  |  | 0.763 µM
NS(=O)(=O)c1ccc(C(=O)O)cc1 [CARZENIDE] | > 640 µg/mL | > 640 µg/mL | 640 µg/mL (≈ 3180 µM) | 640 µg/mL (≈ 3180 µM) |  |  |  |  | 
NS(=O)(=O)Nc1ccccc1 [PHENYLSULFAMIDE] |  |  |  |  |  |  |  |  | 1.91 µM
NS(=O)(=O)Oc1ccc(Br)cc1 |  |  |  |  |  |  |  |  | 0.715 µM
Nc1ccc(S(N)(=O)=O)cc1 [SULFANILAMIDE] | 80 µg/mL (≈ 465 µM) | 160 µg/mL (≈ 929 µM) | 10 µg/mL (≈ 58.1 µM) | 80 µg/mL (≈ 465 µM) |  |  |  |  | 
NS(=O)(=O)c1ccccc1 [BENZENESULFONAMIDE] | 160 µg/mL (≈ 1020 µM) | > 640 µg/mL | 160 µg/mL (≈ 1020 µM) | 320 µg/mL (≈ 2040 µM) |  |  |  |  | 2.36 µM
NS(=O)(=O)c1ccc(Br)cc1 | 320 µg/mL (≈ 1360 µM) | 320 µg/mL (≈ 1360 µM) | 320 µg/mL (≈ 1360 µM) | 320 µg/mL (≈ 1360 µM) |  |  |  |  | 0.894 µM
NS(=O)(=O)Oc1ccccc1 [PHENYLSULFAMATE] |  |  |  |  |  |  |  |  | 1.97 µM
Nc1cc(Cl)c(S(N)(=O)=O)cc1S(N)(=O)=O | 640 µg/mL (≈ 2240 µM) | 640 µg/mL (≈ 2240 µM) | 640 µg/mL (≈ 2240 µM) | 640 µg/mL (≈ 2240 µM) |  |  |  |  | 
